Source: patent US12139526B2, “Modified chimeric receptors and related compositions and methods” (Juno Therapeutics, Inc., priority 2015, dated 2024)
One block for each molecule: values may come before it.

How the values were obtained:
Test in all cases: REVEAL Epitope Discovery System in vitro MHC-peptide binding score
HLA-A*03:01 = HLA-A*03:01 (Homo sapiens, UniProt P04439); details: positive control peptide set at 100%, greater than 50 = good or high affinity binding
Protocol: (§1) Actual binding affinities for certain HLA class I alleles (A*02:01, A*03:01. A*11:01, and B*08:01) were assessed in vitro for exemplary overlapping 9 amino acid peptide sequences within a portion of the 26 amino acid junction region spanning the CD28 and 4-1BB junction. Specifically, assessment was of a series of overlapping 9-mer peptides derived from the sequence […] (set forth in SEQ ID NO: 7), which contains a portion of the CD28 transmembrane domain and 4-1BB costimulatory domain spanning the junction between the domains (bond joining the two amino acids noted in underline). In addition, a series of overlapping 9-mer peptides of each of a number of different variants of this portion also were assessed, each variant containing a mutation or mutations in this region as described in Example 2.
(§2) The various 9-mer overlapping peptides were synthesized and their purity tested by MALDI-TOF Mass Spectrometry. The synthetic peptides were then incubated with recombinant MHC molecules to assess binding properties using the REVEAL Epitope Discovery System, which is a high-throughput binding assay that measures the degree to which each peptide is able to stabilize a ternary MHC-peptide complex (ProImmune, Oxford, United Kingdom). Each peptide was separately tested for this ability with respect to each of the HLA class I alleles, normalized to the degree observed for a positive control (known T cell epitope for the relevant allele). The results are reported as a score, in which the binding was normalized to the positive control peptide set at 100%.

HLA-A*02:01 = HLA-A*02:01 (Homo sapiens, UniProt P04439, D140Y/D185E/D98H/E176V/E277Q/G131W/G231S/I119V/I121R/I166T/I218V/L300P/L318F/N151K/N90K/P208A/P217A/Q86G/Q94H/R138H/R169H/T345S); details: for A*02:01 In Vitro Score: REVEAL score, positive control peptide set at 100%, greater than 50 = good or high affinity binding
Protocol: as §1, §2

HLA-A*11:01 = HLA-A*11:01 (Homo sapiens, UniProt P04439, A114D/D185E/E176A/F33Y/L180Q/S129P/T187R); parameters: key: % binding, normalized to positive control peptide set at 100%; details: binding normalized to positive control peptide set at 100%, greater than 50 considered good or high affinity binding
Protocol: as §1, §2

HLA-B*08:01 = HLA-B*08:01 (Homo sapiens, UniProt P01889, A93T/A95T/D138N/E176V/E187T/K202T/Q94N/R180D/S35A/V36M/Y33D/Y91F); parameters: key: % binding, normalized to positive control peptide set at 100%; details: binding normalized to positive control peptide set at 100%, greater than 50 considered good or high affinity binding
Protocol: as §1, §2

Molecule: IFWVARGRK [9-mer variant junction peptide, K28A]
- A*03:01 In Vitro (HLA-A*03:01): 53.70
- A*02:01 In Vitro Score (HLA-A*02:01): 1.00
- A*11:01 In Vitro Score (HLA-A*11:01): 34.90
- B*08:01 In Vitro Score (HLA-B*08:01): 0.00

Molecule: VAFIIFWVK [9-mer of CD28/4-1BB junction region, mutation none]
- A*03:01 In Vitro (HLA-A*03:01): 1.50
- A*02:01 In Vitro Score (HLA-A*02:01): 0.70
- A*11:01 In Vitro Score (HLA-A*11:01): 109.20
- B*08:01 In Vitro Score (HLA-B*08:01): 0.30

Molecule: IFWVQRGRK [9-mer variant junction peptide, K28Q]
- A*03:01 In Vitro (HLA-A*03:01): 36.70
- A*02:01 In Vitro Score (HLA-A*02:01): 6.10
- A*11:01 In Vitro Score (HLA-A*11:01): 128.50
- B*08:01 In Vitro Score (HLA-B*08:01): 0.00

Molecule: AFIIFWVHR [9-mer variant junction peptide, K28H]
- A*03:01 In Vitro (HLA-A*03:01): 0.30
- A*02:01 In Vitro Score (HLA-A*02:01): 0.30
- A*11:01 In Vitro Score (HLA-A*11:01): 34.90
- B*08:01 In Vitro Score (HLA-B*08:01): 0.30

Molecule: IIFWVKRGA [9-mer variant junction peptide, R31A]
- A*03:01 In Vitro (HLA-A*03:01): 42.90
- A*02:01 In Vitro Score (HLA-A*02:01): 85.90
- A*11:01 In Vitro Score (HLA-A*11:01): 22.60
- B*08:01 In Vitro Score (HLA-B*08:01): 0.90

Molecule: FIIFWVHRG [9-mer variant junction peptide, K28H]
- A*03:01 In Vitro (HLA-A*03:01): 0.00
- A*02:01 In Vitro Score (HLA-A*02:01): 37.30
- A*11:01 In Vitro Score (HLA-A*11:01): 0.90
- B*08:01 In Vitro Score (HLA-B*08:01): 0.20

Molecule: WVQRGNKKL [9-mer variant junction peptide, K28Q/R31N]
- A*03:01 In Vitro (HLA-A*03:01): 1.50
- A*02:01 In Vitro Score (HLA-A*02:01): 4.30
- A*11:01 In Vitro Score (HLA-A*11:01): 10.70
- B*08:01 In Vitro Score (HLA-B*08:01): 32.00

Molecule: AFIIFWVAR [9-mer variant junction peptide, K28A]
- A*03:01 In Vitro (HLA-A*03:01): 0.50
- A*02:01 In Vitro Score (HLA-A*02:01): 2.20
- A*11:01 In Vitro Score (HLA-A*11:01): 51.80
- B*08:01 In Vitro Score (HLA-B*08:01): 0.20

Molecule: IIFWVKRGR [9-mer of CD28/4-1BB junction region, mutation none]
- A*03:01 In Vitro (HLA-A*03:01): 24.30
- A*02:01 In Vitro Score (HLA-A*02:01): 1.70
- A*11:01 In Vitro Score (HLA-A*11:01): 54.50
- B*08:01 In Vitro Score (HLA-B*08:01): 0.00

Molecule: AFIIFWVSR [9-mer variant junction peptide, K28S]
- A*03:01 In Vitro (HLA-A*03:01): 0.30
- A*02:01 In Vitro Score (HLA-A*02:01): 4.50
- A*11:01 In Vitro Score (HLA-A*11:01): 54.00
- B*08:01 In Vitro Score (HLA-B*08:01): 0.30

Molecule: IIFWVQRGA [9-mer variant junction peptide, K28Q/R31A]
- A*03:01 In Vitro (HLA-A*03:01): 2.70
- A*02:01 In Vitro Score (HLA-A*02:01): 95.30
- A*11:01 In Vitro Score (HLA-A*11:01): 56.50
- B*08:01 In Vitro Score (HLA-B*08:01): 0.20

Molecule: IFWVSRGRK [9-mer variant junction peptide, K28S]
- A*03:01 In Vitro (HLA-A*03:01): 39.20
- A*02:01 In Vitro Score (HLA-A*02:01): 1.30
- A*11:01 In Vitro Score (HLA-A*11:01): 39.20
- B*08:01 In Vitro Score (HLA-B*08:01): 0.00

B1: K28L: variant anti-CD19 CAR / junction region with K28L, numbering SEQ ID NO:5 (protein)
chain: FWVLVVVGGVLACYSLLVTVAFIIFWVLRGRKKLLYIFKQPFMRPVQTTQEEDGCSCRFPEEEEGGCEL
modifications: CD28-4-1BB
- predicted or actual binding affinity or score for HLA class I (HLA-A*02:01; for at least one HLA allele (A*02:01, A*03:01, A*11:01, B*08:01) and/or at least one peptide, in silico or in vitro): reduced predicted or actual binding affinity or score

Further lines, results first:

- A*03:01 In Vitro (HLA-A*03:01): 26.90
- A*02:01 In Vitro Score (HLA-A*02:01): 2.40
- A*11:01 In Vitro Score (HLA-A*11:01): 61.10
- B*08:01 In Vitro Score (HLA-B*08:01): 58.30
Molecule: IFWVKRGLK [9-mer variant junction peptide, R31L]

- A*03:01 In Vitro (HLA-A*03:01): 4.30
- A*02:01 In Vitro Score (HLA-A*02:01): 9.30
- A*11:01 In Vitro Score (HLA-A*11:01): 42.10
- B*08:01 In Vitro Score (HLA-B*08:01): 0.90
Molecule: IIFWVKRGN [9-mer variant junction peptide, R31N]

- A*03:01 In Vitro (HLA-A*03:01): 16.20
- A*02:01 In Vitro Score (HLA-A*02:01): 13.60
- A*11:01 In Vitro Score (HLA-A*11:01): 100.00
- B*08:01 In Vitro Score (HLA-B*08:01): 0.40
Molecule: IIFWVKRGS [9-mer variant junction peptide, R31S]

- A*03:01 In Vitro (HLA-A*03:01): 8.00
- A*02:01 In Vitro Score (HLA-A*02:01): 3.50
- A*11:01 In Vitro Score (HLA-A*11:01): 45.90
- B*08:01 In Vitro Score (HLA-B*08:01): 0.10
Molecule: IFWVKRGNK [9-mer variant junction peptide, R31N]

- A*03:01 In Vitro (HLA-A*03:01): 0.90
- A*02:01 In Vitro Score (HLA-A*02:01): 2.40
- A*11:01 In Vitro Score (HLA-A*11:01): 4.10
- B*08:01 In Vitro Score (HLA-B*08:01): 65.90
Molecule: WVKRGNKKL [9-mer variant junction peptide, R31N]

- A*02:01 In Vitro Score (HLA-A*02:01): 8.70
Molecule: FWVKRGNKK [9-mer variant junction peptide, R31N]

- A*03:01 In Vitro (HLA-A*03:01): 1.40
- A*02:01 In Vitro Score (HLA-A*02:01): 3.90
- A*11:01 In Vitro Score (HLA-A*11:01): 2.80
- B*08:01 In Vitro Score (HLA-B*08:01): 47.60
Molecule: WVKRGHKKL [9-mer variant junction peptide, R31H]
